Experimental data reported in patent US20060275826A1, “Artificial antibody comprising complementary peptide” (priority 2003, published 2006).
No end group written: not given here.

Columns and labels:
[1] = molecular target: T1, reverse transcriptase (RT) of human immunodeficiency virus-1 (HIV-1) (Human immunodeficiency virus type 1 group M subtype B, UniProt P04585); assay: HIV-RT activity assay (primer tRNALys3 elongation on viral genome RNA, autoradiography); assay type: biochemical; conditions: for IC50: 50% suppression concentrations against RT, 50 ng HIV-RT, 37° C., 15 minutes; for suppressing activity against RT activity: result in words
T1 construct: reverse transcriptase (abbreviated as RT hereinafter)
Excerpt: Complementary peptides against peptides at each site of reverse transcriptase (abbreviated as RT hereinafter) of a pathogenic virus of AIDS, human immunodeficiency virus-1 (HIV-1), were automatically designed using an analysis program (MIMETIC), and the peptides shown in Table 1 were designed. The designed peptides were synthesized by a conventional solid phase method by allowing 9-fluorenylmethoxycarbonyl (Fmoc) amino acids to sequentially bind using a peptide synthesizer (trade name: AMS 422 Multiple Peptide Synthesizer, manufactured by ABiMED Co.). The synthesized peptide was released from the solid support by a conventional method, and protective groups were removed. The peptide obtained was recovered by ether precipitation, and was purified with reversed phase HPLC after removing ether by drying. A culture supernatant of PLB cells (established human lymphocyte strain) infected with HIV-1 was placed on a top layer of layered 65% and 15% sucrose solutions in a ultracentrifuge tube, and HIV-1 particles were retrieved by ultracentrifugation for 1 hour at 26,500 rpm. Virus RNA was extracted by a guanidine isothiocyanate method (Chomezynski, P. and Sacchi, N., RNA Isolation from Cultured cells, Analytical Biochemistry, 162: 156-159, 1987), and the extract was used by dissolving in 5 mM Tris buffer (pH 7.5). The amount of the whole length virus genome RNA contained in the total RNA sample was quantified according to a conventional ribonuclease protection method (Kaye, J. F. et al., Cis-acting Sequences Involved in Human Immunodeficiency Virus Type 1 RNA Packaging, J. Virol, 69: 6588-6592, 1995; and Huang, Y. et al., The Role of Nucleocapsid and U5 stem/A rich Loop Sequences in tRNA (3Lys) Genomic Placement and Initiation of Reverse Transcription in Human Immunodeficiency Virus Type 1, J. Virol., 72: 3907-3915, 1997). The virus genome binds to tRNA^Lys3 in the cell, and can be used for measuring RT activity. The RNA genome of about 5×10^7 molecules was allowed to react with 50 ng of HIV-RT, 10 units of […] and dNTP's (deoxynucleic acid) at 37° C. for 15 minutes in 20 μl of RTbuffer (50 mMTris-HCl, pH 7.5, 60 mM KCl, 3 mM MgCl2 and 10 mM DTT). The sequence at the tip of the molecule comprises six bases of CTGCTA. One base was added to tRNA^Lys3 using ^32P-dCTP with a radioactivity of 5 μci, and 6 bases were further added by allowing 0.2 mM of dCTP, 0.2 mM of dTTP, 5 μCi of ^32p-dGTP and 0.05 mM of ddATP to react. The elongated primer was retrieved by ethanol precipitation, and was analyzed by auto-radiography through electrophoresis on 6% polyacrylamide gel containing 7 M urea.

[2] = molecular target: T2, HIV transcriptase (HIV-RT) (Human immunodeficiency virus type 1 group M subtype B, UniProt P04585); assay: Sandwich ELISA detecting HIV-RT with complementary peptides as artificial antibody peptides; assay type: binding; conditions: wells coated with ESLA 2340, detection with biotin-labeled TLMA 2993 and peroxidase-labeled avidin
T2 construct: reverse transcriptase (abbreviated as RT hereinafter)
Experimental: Wells of a 96 well plate were coated with ESLA 2340 in advance. After adding a diluted solution of HIV-RT in each well and allowing the plate to stand overnight at 4° C., the plate was washed and biotin-labeled TLMA 2993 was added to each well. The plate was allowed to stand for 1 hour at room temperature. After washing the plate again, peroxidase-labeled avidin was added to allow it to react at room temperature for 1 hour. After washing the plate to remove unreacted avidin, a color development reaction was performed by a conventional method at room temperature by adding a color developing reagent of peroxidase.

[3] = molecular target: T3, Pro-carboxypeptidase R (ProCPR) (Homo sapiens, UniProt Q96IY4); assay: Activation of ProCPR to CPR by thrombin-thrombomodulin (T/TM) complex, hippuryl-L-arginine substrate; assay type: biochemical; conditions: 1 μM of peptide
T3 sequence (Q96IY4 23-423 limits assumed): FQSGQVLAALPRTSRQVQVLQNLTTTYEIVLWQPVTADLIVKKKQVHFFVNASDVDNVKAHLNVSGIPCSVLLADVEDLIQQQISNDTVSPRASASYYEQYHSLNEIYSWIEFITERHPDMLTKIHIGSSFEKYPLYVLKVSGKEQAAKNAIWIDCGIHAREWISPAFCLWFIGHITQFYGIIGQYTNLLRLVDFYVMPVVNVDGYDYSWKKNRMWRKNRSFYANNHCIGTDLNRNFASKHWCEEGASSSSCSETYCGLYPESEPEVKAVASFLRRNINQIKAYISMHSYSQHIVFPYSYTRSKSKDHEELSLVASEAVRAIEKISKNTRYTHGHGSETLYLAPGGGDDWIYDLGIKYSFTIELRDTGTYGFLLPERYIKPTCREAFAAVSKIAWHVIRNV
Excerpt: Pro-carboxypeptidase R (abbreviated as ProCPR hereinafter) is converted into active carboxypeptidase R (abbreviated as CPR hereinafter) by trimming a sequence from an amino terminal to arginine 92 with a trypsin-like enzyme such as thrombin and plasmin. A complementary peptide corresponding to the amino acid sequence comprising 30, 24, 20, 15 or 11 amino acids from amino acid 87 counted from the amino terminal of the ProCPR was automatically designed using the analysis program MIMETIC of the invention, and the peptides shown in Table 2 were designed. An action on the activation reaction of ProCPR by a thrombin-thrombomodulin complex (abbreviated as T/TM complex hereinafter) was analyzed with respect to the peptides (the peptides in notes (1) and (2) in Table 2) comprising 20 and 15 amino acids of the complementary peptides described above. The designed peptides were synthesized by a conventional solid state method by which 9-fluorenylmethoxycarbonyl (Fmoc) amino acids are sequentially linked using a peptide synthesizer (trade name: AMS 422 Multiple Peptide Synthesizer, manufactured by ABiMED Co.) The synthesized peptide was released by a conventional method, and protecting groups were removed. The peptide obtained was retrieved by ether precipitation, and was purified by reversed phase HPLC after removing ether by drying. The purified peptides comprising 20 and 15 amino acids were allowed to react with ProCPR for 10 minutes at room temperature, followed by allowing the T/TM complex to react. After a reaction for 45 minutes at 37° C. by adding hippuril-L-arginine which is substrate of CPR, free hippuric acid was measured according to a reported method (Komura, H., et al., Effect of Anticoagulants in Colorimetric Assay for Basic Carboxypeptidase, Microbiol. Immunol., 46: 115-117, 2002). When 20-mer peptide and 15-mer peptide were added, activation of ProCPR to CPR with the T/TM complex was suppressed by adding 1 μM of respective peptides. […]

ProCPR [4] = molecular target: T4, ProCPR (Homo sapiens, UniProt Q96IY4); assay: Surface plasmon resonance analyzer (Biacore) reactivity to ProCPR; assay type: binding
T4 sequence (Q96IY4 23-423 limits assumed): T3 sequence (Q96IY4 23-423 limits assumed)

ProCPR [5] = molecular target: T5, ProCPR (Homo sapiens, UniProt Q96IY4); assay: Plate ELISA: VGG-coated plate, human plasma containing ProCPR, biotin-labeled 10G1 antibody; assay type: binding; conditions: plate coated with VGG, diluted human plasma
T5 construct: diluted human plasma containing ProCPR; from tissue; host or cells: human plasma
T5 sequence (Q96IY4 115-423): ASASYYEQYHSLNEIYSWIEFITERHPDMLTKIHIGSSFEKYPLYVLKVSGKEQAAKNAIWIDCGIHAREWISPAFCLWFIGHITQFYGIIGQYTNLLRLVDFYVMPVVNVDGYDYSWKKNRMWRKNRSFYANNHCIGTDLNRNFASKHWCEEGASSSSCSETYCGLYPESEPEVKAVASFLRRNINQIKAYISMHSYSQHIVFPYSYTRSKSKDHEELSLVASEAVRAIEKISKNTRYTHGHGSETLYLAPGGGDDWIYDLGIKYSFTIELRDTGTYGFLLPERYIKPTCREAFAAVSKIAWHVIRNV
Experimental: After coating the plate with VGG and washing the plate, diluted human plasma containing ProCPR was added to the plate and was allowed to react for 1 hour at room temperature. After removing excess plasma by washing the plate, 10G1 as a […] was added followed by allowing it to react for 1 hour at room temperature. Excess 10G1 antibody was removed by washing the plate, and remaining 10G1 antibody was allowed to react by adding peroxidase-labeled avidin. After removing unreacted avidin by washing, the reaction solution was made to develop a color by a conventional method depending on the strength of the enzyme reaction of peroxidase by adding a peroxidase color development reagent, and the intensity of the color was measured with a plate reader.

Sequence | IC50 [1] [µM] | suppressing activity against RT activity [1] | color development depending on concentration of HIV-RT (sandwich ELISA) [2] | suppression of activation of ProCPR to CPR with the T/TM complex [3] | further results
TLMALELKGKLLLAGLAPSAFLPLSFPEL [TLMA2993] | 15 | confirmed to suppress the activity of transcriptase | A color was developed depending on the concentration of HIV-RT | – | –
VSRGRRRDRRILMII [15-mer peptide, complementary (mimetic) peptide to ProCPR positions 87-101] | – | – | – | suppressed | –
VGGRRTRARRVLLLVLTETH [complementary (mimetic) peptide to ProCPR positions 87-106] | – | – | – | confirmed to suppress activation of ProCPR | reactivity to ProCPR by surface plasmon resonance (ProCPR [4]): confirmed to be reactive to ProCPR; suppression of activation of ProCPR to CPR with the T/TM complex ([3]; listed as 20-mer peptide): suppressed; color development depending on concentration of plasma containing ProCPR (ELISA) (ProCPR [5]): color was developed depending on the concentration of the plasma
PSTWPTFLKFQLK [PSTW1594, PSTWPTFLKFQLK] | 15 | – | – | – | –
ESLALYKSLQQSEMLLELEL [ESLA2340] | 17 | confirmed to suppress the activity of transcriptase | A color was developed depending on the concentration of HIV-RT | – | –
